Measurements from ChEMBL document CHEMBL2346578, “Substituted 1,6-diphenylnaphthalenes as FtsZ-targeting antibacterial agents” (2013).
≈ marks a conversion by molar mass, not a printed value. Calls of active or inactive are those of the source. No cut-off for these calls is given here.

Experiments:
Staphylococcus aureus [1] = assay: microbe, parasite or virus in culture; type: functional; settings: ATCC 33591
Description: Antibacterial activity against methicillin-resistant Staphylococcus aureus ATCC 33591 assessed as growth inhibition by CLSI broth microdilution method

Enterococcus faecalis [2] = assay: Antibacterial activity against vancomycin-resistant Enterococcus faecalis ATCC 51575 assessed as growth inhibition by CLSI broth microdilution method; type: functional
Enterococcus faecalis [3] = assay: microbe, parasite or virus in culture; type: functional; settings: ATCC 19433
Description: Antibacterial activity against vancomycin-sensitive Enterococcus faecalis ATCC 19433 assessed as growth inhibition by CLSI broth microdilution method

Staphylococcus aureus [4] = assay: Antibacterial activity against methicillin-sensitive Staphylococcus aureus 8325-4 assessed as growth inhibition by CLSI broth microdilution method; type: functional
[5] = molecular target: T1, Cell division protein FtsZ (Staphylococcus aureus) (UniProt P0A031); assay: Stimulation of Staphylococcus aureus ATCC 33591 FtsZ self-polymerization expressed in Escherichia coli BL21 (DE3) at 40 ug/mL by light scattering assay
T1 sequence (whole entry): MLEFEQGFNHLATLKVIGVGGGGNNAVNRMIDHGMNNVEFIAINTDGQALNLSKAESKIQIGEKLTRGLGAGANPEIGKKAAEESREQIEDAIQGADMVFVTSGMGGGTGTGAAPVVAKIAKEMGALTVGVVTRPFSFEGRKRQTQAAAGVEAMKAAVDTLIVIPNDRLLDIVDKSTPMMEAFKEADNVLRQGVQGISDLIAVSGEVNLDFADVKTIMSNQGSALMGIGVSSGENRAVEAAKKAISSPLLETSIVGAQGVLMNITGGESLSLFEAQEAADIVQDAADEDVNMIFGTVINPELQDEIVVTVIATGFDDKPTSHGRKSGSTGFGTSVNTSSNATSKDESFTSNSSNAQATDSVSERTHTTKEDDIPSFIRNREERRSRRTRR

[6] = molecular target: Tubulin beta chain (Sus scrofa) (UniProt P02554); assay: Inhibition of porcine MAP-rich beta-tubulin polymerization at 10 ug/mL by light scattering assay
Tubulin beta chain (Sus scrofa), sequence (P02554 whole entry): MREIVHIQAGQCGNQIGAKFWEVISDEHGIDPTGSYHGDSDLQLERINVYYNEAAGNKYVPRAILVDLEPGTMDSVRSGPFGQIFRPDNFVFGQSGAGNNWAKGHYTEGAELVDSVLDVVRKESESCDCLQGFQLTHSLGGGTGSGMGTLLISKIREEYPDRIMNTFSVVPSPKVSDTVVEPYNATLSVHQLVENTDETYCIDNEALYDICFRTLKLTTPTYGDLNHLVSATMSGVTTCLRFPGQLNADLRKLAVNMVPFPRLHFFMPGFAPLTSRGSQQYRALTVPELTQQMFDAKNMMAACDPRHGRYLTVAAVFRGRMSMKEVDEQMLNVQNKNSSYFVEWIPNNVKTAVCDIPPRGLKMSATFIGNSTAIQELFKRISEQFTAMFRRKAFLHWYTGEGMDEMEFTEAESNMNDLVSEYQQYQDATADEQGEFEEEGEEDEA

[7] = molecular target: Tubulin beta chain (Sus scrofa) (UniProt P02554); assay: Stimulation of porcine MAP-rich beta-tubulin polymerization at 25 ug/mL by light scattering assay
[8] = molecular target: Tubulin beta chain (Sus scrofa) (UniProt P02554); assay: Stimulation of porcine MAP-rich beta-tubulin polymerization at 40 ug/mL by light scattering assay

Structure (SMILES) | MIC90 (Staphylococcus aureus [1]) [µg/mL] | MIC90 (Enterococcus faecalis [2]) [µg/mL] | MIC90 (Enterococcus faecalis [3]) [µg/mL] | MIC90 (Staphylococcus aureus [4]) [µg/mL] | Activity [5] | inhibition [6] | Activity [7] | Activity [8]
CC(C)(C)c1ccc(-c2cccc3cc(-c4cccc([N+](C)(C)C)c4)ccc23)cc1.[I-] | 1 | 2 | 2 | 0.5 |  |  |  | 
CNCc1ccccc1-c1ccc2c(-c3ccc(C(C)(C)C)cc3)cccc2c1 | 2 (≈ 5.27 µM) | 2 (≈ 5.27 µM) | 2 (≈ 5.27 µM) | 2 (≈ 5.27 µM) |  |  |  | 
CC(C)(C)c1ccc(-c2cccc3cc(-c4ccc(C(=O)O)cc4CN)ccc23)cc1 | > 64 | > 64 | > 64 | > 64 |  |  |  | 
NCc1cccc(-c2ccc3c(-c4cccc(-c5ccccc5)c4)cccc3c2)c1 | 4 (≈ 10.4 µM) | 8 (≈ 20.8 µM) | 4 (≈ 10.4 µM) | 2 (≈ 5.19 µM) |  |  |  | 
COC(=O)c1ccc(-c2ccc3c(-c4ccc(C(C)(C)C)cc4)cccc3c2)c(CN)c1 | 2 (≈ 4.72 µM) | 16 (≈ 37.8 µM) | 16 (≈ 37.8 µM) | 2 (≈ 4.72 µM) |  |  |  | 
C[N+](C)(C)Cc1cccc(-c2ccc3c(-c4cccc(-c5ccccc5)c4)cccc3c2)c1.[I-] | 1 | 4 | 4 | 0.5 |  |  |  | 
COc1ccc2c(c[n+](C)c3c4cc5c(cc4ccc23)OCO5)c1OC [CHELERYTHRINE] | 4 | 32 | 32 | 4 |  |  |  | 
CC(C)(C)c1ccc(-c2cccc3cc(-c4cccc(N)c4)ccc23)cc1 | > 64 | > 64 | > 64 | > 64 |  |  |  | 
C[N+](C)(C)c1ccc(-c2ccc3c(-c4ccc(-c5ccccc5)cc4)cccc3c2)cc1.[I-] | 1 | 2 | 2 | 1 |  |  |  | 
CC(C)(C)c1ccc(-c2cccc3cc(-c4ccccc4CCN)ccc23)cc1 | 2 (≈ 5.27 µM) | 4 (≈ 10.5 µM) | 4 (≈ 10.5 µM) | 2 (≈ 5.27 µM) | Active |  |  | 
CN(C)Cc1cccc(-c2ccc3c(-c4cccc(-c5ccccc5)c4)cccc3c2)c1 | 8 (≈ 19.3 µM) | 16 (≈ 38.7 µM) | 16 (≈ 38.7 µM) | 4 (≈ 9.67 µM) |  |  |  | 
C[N+](C)(C)c1ccc(-c2ccc3c(-c4ccc(F)cc4)cccc3c2)cc1.[I-] | 4 | 4 | 4 | 4 |  |  |  | 
CN(C)Cc1ccccc1-c1ccc2c(-c3ccc(C(C)(C)C)cc3)cccc2c1 | > 64 | > 64 | > 64 | 32 (≈ 81.3 µM) |  |  |  | 
CN(C)[C@@H]1C(O)=C(C(N)=O)C(=O)[C@@]2(O)C(O)=C3C(=O)c4c(O)cccc4[C@@](C)(O)[C@H]3C[C@@H]12 [TETRACYCLINE] | 64 (≈ 144 µM) | > 64 | 0.5 (≈ 1.13 µM) | 0.063 (≈ 0.142 µM) |  |  |  | 
CC(C)(C)c1ccc(-c2cccc3cc(-c4ccc([N+](C)(C)C)cc4)ccc23)cc1.[I-] | 2 | 4 | 4 | 1 |  |  |  | 
COC(=O)c1ccc(-c2ccc3c(-c4ccc(C(C)(C)C)cc4)cccc3c2)c(C[N+](C)(C)C)c1.[I-] | 2 | 8 | 4 | 1 |  |  |  | 
C[N+](C)(C)c1cccc(-c2ccc3c(-c4ccc(-c5ccccc5)cc4)cccc3c2)c1.[I-] | 1 | 4 | 2 | 0.5 |  |  |  | 
COC(=O)Nc1nc2cc(C(=O)c3cccs3)ccc2[nH]1 |  |  |  |  |  | Active |  | 

Structure (SMILES) | MIC90 (Staphylococcus aureus [1]) [µg/mL] | MIC90 (Enterococcus faecalis [2]) [µg/mL] | MIC90 (Enterococcus faecalis [3]) [µg/mL] | MIC90 (Staphylococcus aureus [4]) [µg/mL] | Activity [5] | inhibition [6] | Activity [7] | Activity [8]
Cc1onc(-c2ccccc2)c1C(=O)N[C@@H]1C(=O)N2[C@@H]1SC(C)(C)[C@@H]2C(=O)O [OXACILLIN] | > 64 | > 64 | 8 (≈ 19.9 µM) | 0.063 (≈ 0.157 µM) |  |  |  | 
CN[C@H](CC(C)C)C(=O)N[C@H]1C(=O)N[C@@H](CC(N)=O)C(=O)N[C@H]2C(=O)N[C@H]3C(=O)N[C@H](C(=O)N[C@H](C(=O)O)c4cc(O)cc(O)c4-c4cc3ccc4O)[C@H](O)c3ccc(c(Cl)c3)Oc3cc2cc(c3O[C@@H]2O[C@H](CO)[C@@H](O)[C@H](O)[C@H]2O[C@H]2C[C@](C)(N)[C@H](O)[C@H](C)O2)Oc2ccc(cc2Cl)[C@H]1O [VANCOMYCIN] | 2 (≈ 1.38 µM) | > 64 | 1 (≈ 0.69 µM) | 1 (≈ 0.69 µM) | inactive |  |  | 
Cc1ccccc1-c1ccc2c(-c3ccc(C(C)(C)C)cc3)cccc2c1 | > 64 | > 64 | > 64 | > 64 |  |  |  | 
COC(=O)c1ccc(-c2ccc3c(-c4ccc(C(C)(C)C)cc4)cccc3c2)c(CN(C)C)c1 | > 64 | > 64 | > 64 | > 64 |  |  |  | 
C[N+](C)(C)c1cccc(-c2ccc3c(-c4ccc(F)cc4)cccc3c2)c1.[I-] | 4 | 8 | 8 | 1 |  |  |  | 
CC(C)(C)c1ccc(-c2cccc3cc(-c4ccccc4N)ccc23)cc1 | > 64 | > 64 | > 64 | > 64 |  |  |  | 
CC(=O)O[C@H]1C(=O)[C@@]2(C)[C@H]([C@H](OC(=O)c3ccccc3)[C@]3(O)C[C@H](OC(=O)[C@H](O)[C@@H](NC(=O)c4ccccc4)c4ccccc4)C(C)=C1C3(C)C)[C@]1(OC(C)=O)CO[C@@H]1C[C@@H]2O |  |  |  |  |  |  | Active | 
C[n+]1cc2c3c(ccc2c2ccc4cc5c(cc4c21)OCO5)OCO3 [SANGUINARIUM] | 2 | 16 | 8 | 2 |  |  |  | 
CC(C)(C)c1ccc(-c2cccc3cc(-c4ccccc4C[N+](C)(C)C)ccc23)cc1.[I-] | 0.5 | 4 | 4 | 0.5 | Active |  |  | inactive
CNCc1cc(C(=O)OC)ccc1-c1ccc2c(-c3ccc(C(C)(C)C)cc3)cccc2c1 | 4 (≈ 9.14 µM) | 4 (≈ 9.14 µM) | 8 (≈ 18.3 µM) | 4 (≈ 9.14 µM) |  |  |  | 
C[N+](C)(C)c1cccc(-c2ccc3c(-c4ccc(C(F)(F)F)cc4)cccc3c2)c1.[I-] | 4 | 8 | 8 | 1 |  |  |  | 
CC(C)(C)c1ccc(-c2cccc3cc(-c4ccccc4CN=C(N)N)ccc23)cc1 | 1 (≈ 2.45 µM) | 2 (≈ 4.91 µM) | 2 (≈ 4.91 µM) | 1 (≈ 2.45 µM) |  |  |  | 
C[N+](C)(C)c1ccc(-c2ccc3c(-c4cccc(-c5ccccc5)c4)cccc3c2)cc1.[I-] | 1 | 2 | 2 | 1 |  |  |  | 
CCC[C@@H]1C[C@@H](C(=O)N[C@@H]([C@H]2O[C@H](SC)[C@H](O)[C@@H](O)[C@H]2O)[C@H](C)Cl)N(C)C1 [CLINDAMYCIN] | > 64 | > 64 | 2 (≈ 4.71 µM) | 0.031 (≈ 0.0729 µM) |  |  |  | 
COC(=O)c1ccc(-c2ccc3c(-c4ccc(C(C)(C)C)cc4)cccc3c2)c(CN=C(N)N)c1 | 1 (≈ 2.15 µM) | 4 (≈ 8.59 µM) | 2 (≈ 4.3 µM) | 1 (≈ 2.15 µM) |  |  |  | 
C[N+](C)(C)c1cccc(-c2ccc3c(-c4cccc(-c5ccccc5)c4)cccc3c2)c1.[I-] | 1 | 2 | 2 | 1 |  |  |  | 
CC[C@H]1OC(=O)[C@H](C)[C@@H](O[C@H]2C[C@@](C)(OC)[C@@H](O)[C@H](C)O2)[C@H](C)[C@@H](O[C@@H]2O[C@H](C)C[C@H](N(C)C)[C@H]2O)[C@](C)(O)C[C@@H](C)C(=O)[C@H](C)[C@@H](O)[C@]1(C)O [ERYTHROMYCIN] | > 64 | > 64 | 1 (≈ 1.36 µM) | 0.13 (≈ 0.177 µM) |  |  |  | 
